Laboratory results reported in article PMC8876855, “AsKC11, a Kunitz Peptide from Anemonia sulcata, Is a Novel Activator of G Protein-Coupled Inward-Rectifier Potassium Channels” (Marine Drugs, 2022).
Bridges are numbered along the chain shown (N, C = ends). Where no end group is shown, it is not given here.

How the values were obtained:
GIRK2 channel = settings: ref [2],[16]; cited from earlier work
Text: (§1) These activators are weak and nonspecific since they exert effects in the millimolar range and target several types of ion channels at the same range of concentrations. Thus, early investigation of the pathological and physiological relevance of GIRK channels was hampered partly by the lack of potent and selective probes. ...

[1] = cited from earlier work
Text: To better understand the potential of activating neuronal GIRK1/2 channels for therapeutic intervention, selective and potent activators have been developed for GIRK channels. […] Howeve ...

GIRK1/2 channels = settings: cited from earlier work
Text: as §1, with “To better understand the potential of activating neuronal GIRK1/2 channels for therapeutic intervention, selective and potent activators have been developed for GIRK channels. […] These” for “These”

GIRK channels = settings: ref [3],[38],[46]; cited from earlier work
Text: as §1, with “To better understand the potential of activating neuronal GIRK1/2 channels for therapeutic intervention, selective and potent activators have been developed for GIRK channels. […] These” for “These”

mGIRK1/2 [2] = target: T1, mGIRK1/2 (Mus musculus, UniProt P48542+P63250); assay: TEVC, K+ current enhancement through GIRK1/2 expressed in Xenopus oocytes; type: cell-based; settings: 48 μM AsKC11; heterotetrameric GIRK1/2 in oocytes; mean ± SD, n = 4; data not shown
T1 construct: expressed in transfected cells; host or cells: Xenopus laevis oocytes injected with cRNA
T1 sequence (P63250 1-501): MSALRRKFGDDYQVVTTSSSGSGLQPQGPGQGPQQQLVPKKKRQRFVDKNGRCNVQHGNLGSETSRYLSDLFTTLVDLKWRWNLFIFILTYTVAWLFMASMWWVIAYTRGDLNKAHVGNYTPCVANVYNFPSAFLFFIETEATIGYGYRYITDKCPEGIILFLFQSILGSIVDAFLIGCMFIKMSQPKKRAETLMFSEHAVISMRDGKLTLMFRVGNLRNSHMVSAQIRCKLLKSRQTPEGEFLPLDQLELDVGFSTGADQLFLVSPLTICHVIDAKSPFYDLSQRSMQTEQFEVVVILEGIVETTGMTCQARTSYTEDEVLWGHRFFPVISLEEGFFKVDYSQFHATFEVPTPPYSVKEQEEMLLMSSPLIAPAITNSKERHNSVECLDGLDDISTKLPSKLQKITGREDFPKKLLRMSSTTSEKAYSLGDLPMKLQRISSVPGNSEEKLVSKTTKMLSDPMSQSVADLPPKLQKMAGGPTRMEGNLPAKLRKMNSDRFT
T1 sequence (P48542 1-425): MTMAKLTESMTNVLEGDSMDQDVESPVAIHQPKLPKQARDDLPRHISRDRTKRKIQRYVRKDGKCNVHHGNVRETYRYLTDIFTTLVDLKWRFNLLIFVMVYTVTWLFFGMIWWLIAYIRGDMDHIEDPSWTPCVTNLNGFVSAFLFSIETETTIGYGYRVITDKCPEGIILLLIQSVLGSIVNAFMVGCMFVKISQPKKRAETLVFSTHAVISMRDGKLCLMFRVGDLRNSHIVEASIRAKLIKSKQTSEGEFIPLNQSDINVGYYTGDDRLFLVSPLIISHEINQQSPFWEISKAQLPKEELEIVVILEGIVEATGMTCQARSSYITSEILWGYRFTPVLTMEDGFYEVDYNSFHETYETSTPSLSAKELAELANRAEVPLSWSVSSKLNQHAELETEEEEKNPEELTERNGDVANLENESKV
Text: To identify the novel activator of GIRK1/2 channels, we first tested the effects of venom fractions previously purified from the venom of Anemonia sulcata on whole-cell currents in oocytes expressing GIRK1/2 channels. […] The oocytes coinjected with GIRK1/2 cRNA were voltage-clamped at −90 mV. To increase the GIRK current at the negative potential, a high-potassium extracellular buffer (HK) was used, which allowed for more obvious currents and accurate measurement. Thus, after exchanging ND96 to HK, basal K^+ currents (IK,basal) were observed and were carried by GIRK1/2 channels (Figure 1a).
The potency of AsKC11 to enhance inward K^+ currents through GIRK1/2 channels was studied by applying increasing concentrations of AsKC11 (2.4, 12, 24, and 48 µM) to oocytes expressing GIRK1/2 channels. These oocytes were subjected to a 1-s voltage ramp protocol from −150 to +60 mV from a holding potential of −20 mV.
All procedures for the use and handling of adult female Xenopus laevis frogs (CRB Xénopes, Rennes, France) were approved by the Animal Ethics Committee of the KU Leuven (Project No. P186/2019) following regulations of the European Union (EU) concerning the welfare of laboratory animals, as declared in Directive 2010/63/EU. […] After recovery from anesthesia, frogs were returned to their tanks in the Aquatic Facility of KU Leuven and were monitored daily. […]

mGIRK1/2 [3] = target: T1, mGIRK1/2; assay: Kinetics and affinity of AsKC11 on GIRK1/2 channels (wash-in/wash-out, bimolecular scheme); type: cell-based
Text: As shown in the abovementioned results, AsKC11 binding was reversible. We next explored whether the AsKC11-elicited activation of GIRK1/2 channels followed a kinetic behavior of a simple bimolecular reaction. The current activation upon AsKC11 application and recovery upon AsKC11 removal followed a single exponential time course compatible with a bimolecular reaction scheme (See Section 4).
For the expression of potassium channels (hKV1.1, hKV1.2, hKV1.3, rKV1.4, rKV1.6, and mGIRK1/2, mGIRK2 alone, or IRK1) in Xenopus oocytes, the linearized plasmids were transcribed using the T3, T7, or SP6 mMESSAGEmMACHINE transcription kit (Ambion, Austin, TX, USA). Following the cRNA injection into oocytes and 1–4 days of incubation at 16 °C, electrophysiological experiments were conducted using the two-electrode voltage-clamp (TEVC) GeneClamp 500B (Axon Instruments, San Jose, CA, USA). Electrodes were fabricated from borosilicate glass tubes (1.14 mm outside diameter, 0.7 mm inside diameter) by a programmable microelectrode puller, PUL-1 (World Precision Instruments, Sarasota, FL, USA). Electrodes were filled with 3 M KCl and had tip resistances from 0.8 to 1.5 MΩ. […]

GIRK1/2 channel = target: T2, GIRK1/2 channel (Mus musculus, UniProt P63250); assay: two-electrode voltage clamp kinetics (koff/kon) in Xenopus oocytes
T2 chain 1: T1 sequence (P63250 1-501)
T2 chain 2: T1 sequence (P48542 1-425)

## Cc1cc(NC(=O)Nc2ccc(F)c(F)c2)n(-c2ccccc2)n1 [ML297]
GIRK2 channel
  effect on GIRK2 channel: not affect the GIRK2 channel
[1]; ref [2],[16]
  effects in animal models: antiepileptic and anxiolytic effects in animal models
[1]; ref [2]
  pharmacokinetic properties: suboptimal
GIRK1/2 channels; ref [2],[5],[16]
  affinity of activity on GIRK1/2: nanomolar range
GIRK1/2 channels; ref [2]
  requirement for GIRK1/2 activation: required the presence of the membrane phospholipid phosphatidylinositol 4,5-bisphosphate instead of Gi/o

## CCO [ethanol]
GIRK channels
  potency for activating GIRK channels: very low potency

## C[C@@H]1O[C@@H](O[C@H]2[C@H](Oc3cc(O)c4c(c3)O[C@H](c3ccc(O)cc3)CC4=O)O[C@H](CO)[C@@H](O)[C@@H]2O)[C@H](O)[C@H](O)[C@H]1O [naringin]
GIRK channels
  potency for activating GIRK channels: very low potency

## INKDCLLPKVVGFCRARFPRYYYNSSSRRCEKFIYGGCGGNANNFSSYYECHIKCFGPR (disulfide 5-55, 14-38, 30-51) [AsKC11]
mGIRK1/2 [2]
  enhancement in inward K+ currents, GIRK1/2: 74.1 ± 12.5%
mGIRK1/2 [3]; 48 μM AsKC11, wash-out, read-out: first-order dissociation rate constant (koff = β)
  koff: 0.00633 s⁻¹
mGIRK1/2 [3]; 48 μM AsKC11, read-out: second-order association rate constant (α)
  kon: 78.2 M⁻¹ s⁻¹

B1: AsKC11 (protein)
chain: INKDCLLPKVVGFCRARFPRYYYNSSSRRCEKFIYGGCGGNANNFSSYYECHIKCFGPR
GIRK1/2 channel
  Kd: 80.9 µM
